Experimental data published in the supplement of paper PMC11451515.

What was measured:
Conditions in all cases: 48 h
[1] = system: NOMO1; assay: cell viability relative to DMSO control; higher = less cytotoxic
Summary of the method: (§1)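 Viability is expressed as a percentage of DMSO wells within each plate, and cell-free wells serve as background. Seeding densities in the 1536-well plates (5 μl) were 500 cells/well for NOMO1 or SEM leukemia cells and 1000 cells/well for P12-Ichikawa. Each line was adapted for at least four passages in each medium. Library compounds in DMSO were pin-dosed at 47 μM to 0.79 nM (11 points, threefold), and CellTiter-Glo One luminescence was read after 48 h at 37°C.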

[2] = system: P12-Ichikawa; assay: as above
Summary of the method: as §1

[3] = system: SEM cells; assay: as above
Summary of the method: as §1

[4] = system: NOMO1; assay: AUC of viability dose-response curve (% viability x log10 dose units); higher = less sensitive
Summary of the method: (§2)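 Leukemia cells adapted to each medium were seeded in 1536-well plates (500 or 1000 cells/well) and given library compounds in DMSO for 48 h at 37°C. The 11 threefold doses spanned 47 μM to 0.79 nM, and CellTiter-Glo One luminescence was normalised per plate to DMSO and cell-free wells before four-parameter log-logistic fitting on log10 dose. Area under the curve was integrated with the trapezoidal rule, scaling curves above full viability and removing curves that failed quality control.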

[5] = system: P12-Ichikawa; assay: as above
Summary of the method: as §2

[6] = system: SEM cells; assay: as above
Summary of the method: as §2

CCCC1OC2C[C@H]3[C@@H]4CCC5=CC(=O)C=C[C@]5(C)[C@H]4C(O)C[C@]3(C)[C@]2(C(=O)CO)O1 (stereo partly drawn)
cell viability [%]
Conditions | [1] | [2] | [3]
HPLM + 10% dialyzed FBS, 0.000781 µM | – | 114 | 88.6
HPLM + 10% dialyzed FBS, 0.00234 µM | – | 120 | 84.3
HPLM + 10% dialyzed FBS, 0.00702 µM | – | 109 | 97.1
HPLM + 10% dialyzed FBS, 0.0211 µM | – | 95.8 | 85.3
HPLM + 10% dialyzed FBS, 0.0632 µM | – | 79 | 69
HPLM + 10% dialyzed FBS, 0.19 µM | – | 68.7 | 67
HPLM + 10% dialyzed FBS, 0.569 µM | – | 67.3 | 62.2
HPLM + 10% dialyzed FBS, 1.71 µM | – | 64 | 51
HPLM + 10% dialyzed FBS, 5.12 µM | – | 64.9 | 48
HPLM + 10% dialyzed FBS, 15.4 µM | – | 60 | 46.2
HPLM + 10% dialyzed FBS, 46.1 µM | – | 49 | 27.4
RPMI 5 mM glucose + 10% FBS, 0.000781 µM | 106 | 116 | 95.2
RPMI 5 mM glucose + 10% FBS, 0.00234 µM | 105 | 114 | 125
RPMI 5 mM glucose + 10% FBS, 0.00702 µM | 107 | 99.1 | 95.7
RPMI 5 mM glucose + 10% FBS, 0.0211 µM | 111 | 90 | 86.7
RPMI 5 mM glucose + 10% FBS, 0.0632 µM | 107 | 70.6 | 81.4
RPMI 5 mM glucose + 10% FBS, 0.19 µM | 104 | 57.8 | 66
RPMI 5 mM glucose + 10% FBS, 0.569 µM | 106 | 57.6 | 46.3
RPMI 5 mM glucose + 10% FBS, 1.71 µM | 103 | 50.1 | 59.9
RPMI 5 mM glucose + 10% FBS, 5.12 µM | 100 | 51.2 | 48.6
RPMI 5 mM glucose + 10% FBS, 15.4 µM | 97.5 | 51.3 | 46.2
RPMI 5 mM glucose + 10% FBS, 46.1 µM | 46.7 | 39.7 | 18.2
RPMI 5 mM glucose + 10% dialyzed FBS, 0.000781 µM | 99.5 | 116 | 87.4
RPMI 5 mM glucose + 10% dialyzed FBS, 0.00234 µM | 119 | 108 | 105
RPMI 5 mM glucose + 10% dialyzed FBS, 0.00702 µM | 106 | 90.4 | 100
RPMI 5 mM glucose + 10% dialyzed FBS, 0.0211 µM | 114 | 76.7 | 77.9
RPMI 5 mM glucose + 10% dialyzed FBS, 0.0632 µM | 110 | 60 | 68.8
RPMI 5 mM glucose + 10% dialyzed FBS, 0.19 µM | 102 | 47.5 | 59.2
RPMI 5 mM glucose + 10% dialyzed FBS, 0.569 µM | 105 | 44.1 | 53.4
RPMI 5 mM glucose + 10% dialyzed FBS, 1.71 µM | 115 | 43 | 52.3
RPMI 5 mM glucose + 10% dialyzed FBS, 5.12 µM | 97.1 | 42 | 50.5
RPMI 5 mM glucose + 10% dialyzed FBS, 15.4 µM | 95.3 | 37.5 | 39.7
RPMI 5 mM glucose + 10% dialyzed FBS, 46.1 µM | 63.7 | 28.4 | 19.3

AUC of viability dose-response curve
Conditions | [4] | [5] | [6]
HPLM + 10% dialyzed FBS | 446 | 324 | 317
RPMI 5 mM glucose + 10% FBS | 460 | 290 | 304
RPMI 5 mM glucose + 10% dialyzed FBS | 458 | 252 | 311

COc1cc(N2CCC(N(C)C)CC2)ccc1Nc1ncc(Cl)c(Nc2ccccc2P(C)(C)=O)n1
cell viability [%]
Conditions | [1] | [2] | [3]
HPLM + 10% dialyzed FBS, 0.000781 µM | – | 110 | 117
HPLM + 10% dialyzed FBS, 0.00234 µM | – | 115 | 112
HPLM + 10% dialyzed FBS, 0.00702 µM | – | 110 | 116
HPLM + 10% dialyzed FBS, 0.0211 µM | – | 113 | 114
HPLM + 10% dialyzed FBS, 0.0632 µM | – | 117 | 110
HPLM + 10% dialyzed FBS, 0.19 µM | – | 115 | 82.3
HPLM + 10% dialyzed FBS, 0.569 µM | – | 87.9 | 51
HPLM + 10% dialyzed FBS, 1.71 µM | – | 40.5 | 28.3
HPLM + 10% dialyzed FBS, 5.12 µM | – | 13.6 | 17.7
HPLM + 10% dialyzed FBS, 15.4 µM | – | 18.3 | 11.9
HPLM + 10% dialyzed FBS, 46.1 µM | – | 30.7 | 5.99
RPMI 5 mM glucose + 10% FBS, 0.000781 µM | 123 | 112 | 114
RPMI 5 mM glucose + 10% FBS, 0.00234 µM | 116 | 118 | 105
RPMI 5 mM glucose + 10% FBS, 0.00702 µM | 130 | 123 | 114
RPMI 5 mM glucose + 10% FBS, 0.0211 µM | 118 | 122 | 109
RPMI 5 mM glucose + 10% FBS, 0.0632 µM | 124 | 121 | 128
RPMI 5 mM glucose + 10% FBS, 0.19 µM | 115 | 104 | 95.4
RPMI 5 mM glucose + 10% FBS, 0.569 µM | 111 | 102 | 57.8
RPMI 5 mM glucose + 10% FBS, 1.71 µM | 102 | 82.2 | 18.2
RPMI 5 mM glucose + 10% FBS, 5.12 µM | 21.3 | 11.9 | 8.88
RPMI 5 mM glucose + 10% FBS, 15.4 µM | 23.8 | 12.5 | 6.45
RPMI 5 mM glucose + 10% FBS, 46.1 µM | 23.2 | 23.6 | 4.89
RPMI 5 mM glucose + 10% dialyzed FBS, 0.000781 µM | 115 | 111 | –
RPMI 5 mM glucose + 10% dialyzed FBS, 0.00234 µM | 110 | 113 | –
RPMI 5 mM glucose + 10% dialyzed FBS, 0.00702 µM | 128 | 117 | –
RPMI 5 mM glucose + 10% dialyzed FBS, 0.0211 µM | 117 | 124 | –
RPMI 5 mM glucose + 10% dialyzed FBS, 0.0632 µM | 123 | 126 | –
RPMI 5 mM glucose + 10% dialyzed FBS, 0.19 µM | 124 | 127 | –
RPMI 5 mM glucose + 10% dialyzed FBS, 0.569 µM | 107 | 107 | –
RPMI 5 mM glucose + 10% dialyzed FBS, 1.71 µM | 94.7 | 106 | –
RPMI 5 mM glucose + 10% dialyzed FBS, 5.12 µM | 31.4 | 30.8 | –
RPMI 5 mM glucose + 10% dialyzed FBS, 15.4 µM | 21.3 | 19.3 | –
RPMI 5 mM glucose + 10% dialyzed FBS, 46.1 µM | 27.6 | 31.5 | –

AUC of viability dose-response curve
Conditions | [4] | [5] | [6]
HPLM + 10% dialyzed FBS | 333 | 338 | 288
RPMI 5 mM glucose + 10% FBS | 374 | 361 | 294
RPMI 5 mM glucose + 10% dialyzed FBS | 375 | 380 | 287
